Assays:
α1 adrenergic receptor = test: Displacement of specific binding of [3H]prazosin from rat forebrain membranes; conditions: 0.2 nM [3H]prazosin, affinity defined as IC50 for displacement of specific binding
Experimental: Compounds of the formula I have selectivity for NR^2B subunit-containing NMDA receptors over α1-adrengergic receptors. Affinity for the NR^2B subunit containing NMDA receptor is measured as the IC50 for displacement of specific binding of racemic [^3H] (+)-(1S, 2S)-1-(4-hydroxy-phenyl)-2-(4-hydroxy4-phenylpiperidino)-1-propanol from rat forebrain membranes (described above). Affinity for the α1-adrengergic receptor is defined as the IC50 for displacement of specific binding of racemic [^3H]prazosin from rat brain membranes, measured as described by Greengrass and Bremner (Binding Characteristics of [^3H]prazosin to Rat Brain α-Adrenergic Receptors, European Journal of Pharmacology, 55, 323-326, (1979)).
Forebrains of adult male Sprague Dawley rats are homogenized in 20 volumes of ice cold 50 mM Tris/HCl buffer (pH 7.7). The homogenate is centrifuged at 50,000×g for 10 minutes at 4° C. The pellet is resuspended and centrifuged under identical conditions and the final pellet is resuspended in 80 volumes of 50 mM Tris/HCl (pH 8.0) at 4° C.
For binding assays, compounds under study are added at various concentrations to 500 μg membrane protein in 1 ml of 50 mM Tris/HCl buffer, followed by [^3H]prazosin (Amersham, specific activity 33 Ci/mmol, 0.2 nM final concentration). Following incubation for 30 min at 25° C. in a shaking water bath, samples are filtered onto Whatman GFB glass fiber filters using a MB-48R Cell Harvester (Brandel Research and Development Laboratories, Gaithersburg Md.). Filters are washed three times for 10s with ice cold Tris HCl buffer and the radioactivity trapped on the filter quantified by liquid scintillation spectroscopy. Nonspecific binding is determined in parallel incubations containing 100 nM prazosin. Specific binding is defined as total binding minus nonspecific binding.

[1] = molecular target: T1, NR2B subunit containing NMDA receptor (Rattus norvegicus, UniProt P35439+Q00960); test: Displacement of specific binding of racemic [3H](+)-(1S,2S)-1-(4-hydroxy-phenyl)-2-(4-hydroxy-4-phenylpiperidino)-1-propanol ([3H]CP-101,606) from rat forebrain membranes; conditions: ratio of the two binding IC50s; selectivity for NR2B NMDA receptor over α1 adrenergic receptor; greater than three is considered selective
T1 construct: (+)-(1S, 2S)-1-(4-hydroxy-phenyl)-2-(4-hydroxy4-phenylpiperidino)-1-propanol from rat forebrain membranes; from tissue; host or cells: forebrain membranes of adult male CD rats
Experimental: This affinity is assessed in a radioligand binding assay as described below.
The binding of racemic [^3H] […] Forebrains of adult male CD rats are homogenized in 0.32M sucrose at 4° C. The crude nuclear pellet is removed by centrifugation at 1,000×g for 10 minutes, and the supernatant centrifuged at 17,000×g for 25 minutes. The resulting pellet is resuspended in 5 mM Tris acetate pH 7.4 at 4° C. for 10 minutes to lyse cellular particles and again centrifuged at 17,000×g. The resulting pellet is washed twice in Tris acetate, resuspended at 10 mg protein/ml and stored at −20° C. until use.
For binding assays, membranes are thawed, homogenized, and diluted to 0.5 mg protein/ml with 50 mM Tris HCl, pH 7.4. Compounds under study are added at various concentrations followed by racemic [^3H] […] Following incubation for 20 min at 30° C. in a shaking water bath, samples are filtered onto Whatman GFB glass fiber filters using a MB-48R Cell Harvester (Brandel Research and Development Laboratories, Gaithersburg Md.). Filters are washed for 10 s with ice cold Tris HCl buffer and the radioactivity trapped on the filter quantified by liquid scintillation spectroscopy. […] Specific binding is defined as total binding minus nonspecific binding.
Affinity for the NR^2B subunit containing NMDA receptor is measured as the IC50 for displacement of specific binding of racemic [^3H] […] Affinity for the α1-adrengergic receptor is defined as the IC50 for displacement of specific binding of racemic [^3H]prazosin from rat brain membranes, measured as described by Greengrass and Bremner (Binding Characteristics of [^3H]prazosin to Rat Brain α-Adrenergic Receptors, European Journal of Pharmacology, 55, 323-326, (1979)).

T1 sequence (Q00960 27-1482, other chains not shown): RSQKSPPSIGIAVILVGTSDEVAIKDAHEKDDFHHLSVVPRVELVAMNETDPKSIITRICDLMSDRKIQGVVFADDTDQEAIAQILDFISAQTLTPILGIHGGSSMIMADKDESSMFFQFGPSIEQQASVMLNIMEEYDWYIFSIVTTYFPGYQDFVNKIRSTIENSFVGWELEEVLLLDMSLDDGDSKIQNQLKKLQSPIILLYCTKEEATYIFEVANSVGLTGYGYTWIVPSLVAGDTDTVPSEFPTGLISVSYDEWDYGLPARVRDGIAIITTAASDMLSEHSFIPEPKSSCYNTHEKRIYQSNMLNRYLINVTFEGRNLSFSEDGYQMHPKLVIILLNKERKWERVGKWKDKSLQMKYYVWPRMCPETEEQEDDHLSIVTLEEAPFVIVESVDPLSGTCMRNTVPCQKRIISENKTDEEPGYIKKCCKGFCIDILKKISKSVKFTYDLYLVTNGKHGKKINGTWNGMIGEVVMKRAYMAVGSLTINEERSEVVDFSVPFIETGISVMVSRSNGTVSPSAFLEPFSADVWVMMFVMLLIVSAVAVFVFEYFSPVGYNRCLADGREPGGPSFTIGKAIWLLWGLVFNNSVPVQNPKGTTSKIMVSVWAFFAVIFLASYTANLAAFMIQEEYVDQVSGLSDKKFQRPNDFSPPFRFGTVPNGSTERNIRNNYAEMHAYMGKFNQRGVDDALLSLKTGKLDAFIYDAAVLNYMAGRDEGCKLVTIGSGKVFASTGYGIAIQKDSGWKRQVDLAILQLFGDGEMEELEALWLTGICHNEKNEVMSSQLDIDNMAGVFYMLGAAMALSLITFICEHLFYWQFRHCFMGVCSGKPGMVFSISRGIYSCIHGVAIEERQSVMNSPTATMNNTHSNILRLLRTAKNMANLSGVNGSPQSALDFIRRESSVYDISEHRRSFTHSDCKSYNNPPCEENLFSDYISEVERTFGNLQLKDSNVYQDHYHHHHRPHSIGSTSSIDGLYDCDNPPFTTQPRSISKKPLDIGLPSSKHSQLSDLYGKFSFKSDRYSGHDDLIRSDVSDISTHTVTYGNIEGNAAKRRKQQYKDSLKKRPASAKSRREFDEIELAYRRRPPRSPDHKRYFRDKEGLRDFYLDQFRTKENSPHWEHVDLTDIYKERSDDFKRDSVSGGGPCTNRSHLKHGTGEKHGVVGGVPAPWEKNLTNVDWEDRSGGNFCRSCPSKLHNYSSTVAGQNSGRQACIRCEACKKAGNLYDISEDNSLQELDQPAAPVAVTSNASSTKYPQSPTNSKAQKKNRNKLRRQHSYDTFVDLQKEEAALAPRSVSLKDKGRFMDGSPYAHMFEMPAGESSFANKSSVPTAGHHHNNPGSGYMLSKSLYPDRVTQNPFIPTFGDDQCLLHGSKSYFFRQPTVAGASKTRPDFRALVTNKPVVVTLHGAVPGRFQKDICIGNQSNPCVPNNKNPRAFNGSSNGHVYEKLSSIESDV

Row | Compound | IC50 (α1 adrenergic receptor) [µM] | Ratio [^3H]Prazosin/[^3H](+)-(1S, 2S)-1-(4-hydroxy-phenyl)-2-(4-hydroxy-4-phenylpiperidino)-1-propanol [1] | melting point [°C]
1 | C[C@@H]([C@@H](O)c1ccc(O)cc1)N1CCC(O)(c2ccccc2)CC1 [(1S,2S)-1-(4-hydroxyphenyl)-2-(4-hydroxy-4-phenylpiperidino)-1-propanol] | 19.5 |  | 
2 | Cc1cc([C@@H](O)[C@@H](C)N2CCC(O)(c3ccc(F)cc3)CC2)ccc1O (relative stereo) [(1R*, 2R*)-1-(4-hydroxy-3-methylphenyl)-2-(4-(4-fluorophenyl)-4-hydroxypiperidin-1-yl)-propan-1-ol-mesylate] | 10 |  | 
3 | OC(CN1CCC(Cc2ccc(F)cc2)CC1)c1ccc(Cl)cc1 (stereo not drawn) [Eliprodil, reference compound] | 0.98 ± 0.22 | 2.2 | 
4 | COc1cc([C@H](O)[C@H](C)N2CCC(O)(c3ccccc3)CC2)ccc1O [1S, 2S 1-(4-hydroxy-3-methoxyphenyl)-2-(4-hydroxy-4-phenyl-piperidin-1-yl)-propan-1-ol] | 8.1 | 86 | 
5 | Oc1ccc2c(c1)OC[C@@H](N1CCC(O)(c3ccc(F)cc3)CC1)[C@H]2O [(3R,4S)-3-[4-(4-fluorophenyl)-4-hydroxy-piperidin-1-yl]-chroman-4,7-diol] | > 10 | ≧555 | 
6 | Oc1ccc2c(c1)OCC(N1CCC(O)(c3ccc(F)cc3)CC1)[C@H]2O (stereo in doubt) |  |  | 159 to 160

Source: patent publication US6667317B2, “Pharmaceutical combinations for the treatment of stroke and traumatic brain injury” (Pfizer Inc, priority 2000, dated 2003)
